Paper PMC12522106 (Cancer Research Communications, 2025)

What was measured:
[1] = system: sarcospheres derived from 143B, MG63.3-GFP, and LM7 cell lines; test: Sarcosphere resazurin metabolic activity, results stated across all three cell lines; assay type: cell-based, human; conditions: for effect in initial screen: 48 hours, all three cell lines; for effect on sarcosphere metabolic activity at Cmax: HDIs in clinical trials, tested at their Cmax, with and without MAP
Protocol: (§1) Khanna DVM, PhD (NCI). […] Medium was sterile filtered before use.
(§2) Highly metastatic osteosarcoma cells cultured in monolayers at 50% to 80% confluence were lifted with Accutase (Innovative Cell Technologies, Inc., cat. #NC9839010), resuspended in media, and diluted to the desired concentration. […] Following cell seeding, plates were centrifuged (1,000 g for 10 minutes at 4°C) and then incubated at 37°C with 5% CO2. […] Then, 100 μL drug treatment or vehicle was added to each well. […] Resazurin reduction on day 2 by vehicle-treated sarcospheres was compared with resazurin reduction on day 0 to calculate sarcosphere growth without drug over 2 days in selected experiments.
(§3) Plates were incubated at 37°C in 5% CO2 for 2 or 6 hours.
(§4) Sarcospheres were matured for 24 hours and then treated for 48 hours with media containing 10 µmol/L of each drug and 0.1% DMSO. […] Growth inhibition represents a more clinically translatable measure for screening studies in which a value of 0% represents stable disease since the start of treatment, values of 0% to 100% represent progression in which 100% is the untreated control, and values less than 0% represent regression in which −100% represents blank wells without sarcospheres.

[2] = cited from earlier work
[3] = system: spheroids derived from 65 pediatric patients with various types of cancer; parameters: method as in PMID 36575299; conditions: including seven osteosarcomas; cited from earlier work
[4] = system: monolayers of either established osteosarcoma cell lines or PDX cell lines; parameters: method as in PMID 30395907, PMID 26601688, PMID 37457661, PMID 35411591; conditions: cited from earlier work
LM7 sarcospheres = test: Sarcosphere resazurin metabolic activity (initial and secondary screens); assay type: cell-based, human; conditions: for activity in combination with MAP: Bliss curve fitting, LM7
Protocol: as §1, §2, §3, §4

Q: For `COc1cccc2c1C(=O)c1c(O)c3c(c(O)c1C2=O)C[C@@](O)(C(=O)CO)C[C@@H]3O[C@H]1C[C@H](N)[C@H](O)[C@H](C)O1` [doxorubicin], which “effect in initial screen” value ([1]; 10 μmol/L) is on record?
A: effective

Q: With `CC[C@@]1(O)C(=O)OCc2c1cc1n(c2=O)Cc2cc3c(CN(C)C)c(O)ccc3nc2-1` [topotecan] as the compound, how does the Cmax [2] read?
A: 6.5 nM

Q: And the “rank in initial screen” value ([1]; 10 μmol/L)?
A: ranked eighth

Q: With `CCN(CC)Cc1ccc2cc(COC(=O)Nc3ccc(C(=O)NO)cc3)ccc2c1` [givinostat] as the compound, how does the “effect on sarcosphere metabolic activity at Cmax” value (from here on “effect … at Cmax”) [1] read?
A: weakly inhibited

Q: Which results are given for `Cc1[nH]c2ccccc2c1CCNCc1ccc(/C=C/C(=O)NO)cc1` [panobinostat]?
A: rank of 75 drugs [3]: fifteenth; standing in four independent screens [4]: among the top hits

Q: Which “rank in initial screen” value (LM7 sarcospheres; 10 μmol/L) does the source give for `COc1cc2nccc(Oc3ccc(NC(=O)C4(C(=O)Nc5ccc(F)cc5)CC4)cc3)c2cc1OC` [Cabozantinib, cabozantinib] here?
A: ranked fifteenth

Q: For `CCCCc1nc2cc(/C=C/C(=O)NO)ccc2n1CCN(CC)CC` [pracinostat], which “effect … at Cmax” value [1] is on record?
A: weakly inhibited

Q: For `Cc1ccc(C(=O)Nc2ccc(CN3CCN(C)CC3)c(C(F)(F)F)c2)cc1C#Cc1cnc2cccnn12` [ponatinib], which “activity in combination with MAP” value (LM7 sarcospheres) is on record?
A: additive-to-synergistic activity

Q: With `CN(C)Cc1c(C(=O)NCCOc2ccc(C(=O)NO)cc2)oc2ccccc12` [abexinostat] as the compound, how does the “effect … at Cmax” value [1] read?
A: weakly inhibited

Q: With `CN(C)Cc1ccc(S(=O)(=O)n2ccc(/C=C/C(=O)NO)c2)cc1` [resminostat] as the compound, how does the “effect … at Cmax” value [1] read?
A: most effective

Q: For `CC(C)C[C@H](NC(=O)[C@H](CCc1ccccc1)NC(=O)CN1CCOCC1)C(=O)N[C@@H](Cc1ccccc1)C(=O)N[C@@H](CC(C)C)C(=O)[C@@]1(C)CO1` [carfilzomib], which “standing in four independent screens” value [4] is on record?
A: among the top hits

Q: What about the “rank of overall mean of the three Cmax/ED50 ratios among the 13 drugs” value ([1]; without MAP) of the same compound?
A: highest overall mean

Q: Which “effect in initial screen” value ([1]; 10 μmol/L) does the source give for `CO[C@H]1C[C@@H]2CC[C@@H](C)[C@@](O)(O2)C(=O)C(=O)N2CCCC[C@H]2C(=O)O[C@H]([C@H](C)C[C@@H]2CC[C@@H](OCCO)[C@H](OC)C2)CC(=O)[C@H](C)/C=C(\C)[C@@H](O)[C@@H](OC)C(=O)[C@H](C)C[C@H](C)/C=C/C=C/C=C/1C` [everolimus] here?
A: little or no effect

Q: Which “rank of 75 drugs” value [3] does the source give for `CC(C)C[C@H](NC(=O)[C@H](Cc1ccccc1)NC(=O)c1cnccn1)B(O)O` [bortezomib] here?
A: nineteenth

Q: And the “standing in four independent screens” value [4]?
A: among the top hits

Q: For `CC(C)[C@H](C(=O)Nc1ccc(C(=O)NO)cc1)c1ccccc1` [AR-42], which “effect … at Cmax” value [1] is on record?
A: most effective

Q: Which “effect in initial screen” value ([1]; 10 μmol/L) does the source give for `N.N.[Cl][Pt][Cl]` [cisplatin] here?
A: no detectable effect

Q: Which “activity in combination with MAP” value (LM7 sarcospheres) does the source give for `O=C(CCCCCCC(=O)Nc1ccccc1)NO` [vorinostat] here?
A: additive-to-synergistic activity

Q: Which “effect … at Cmax” value [1] does the source give for `Nc1ccccc1NC(=O)c1ccc(CNc2nccc(-c3cccnc3)n2)cc1` [mocetinostat] here?
A: weakly inhibited

Q: Which “effect … at Cmax” value [1] does the source give for `Cn1cc(CNCC2CCN(c3ncc(C(=O)NO)cn3)CC2)c2ccccc21` [quisinostat] here?
A: weakly inhibited
